These results are taken from patent US20230248029A1, “Single-Serving Beverage Ingredient Containers Comprising Nanoparticulate Cannabidiol” (priority 2022, published 2023).

Data set [1] can be described thus: CBD extraction in brewed coffee beverage, pure CBD powder (HPLC). It counts as physicochemical. An excerpt: To test the extraction efficiency of pure CBD powder in a coffee brewing process, the foil lids of each of several single-serving coffee containers adapted for use in a Keurig single-serving coffee machine were peeled back, a small depression was made in the top of the coffee grounds, and a measured quantity of CBD powder was placed in the depression. The foil lids were then resealed, and the containers were shaken for 30 seconds to disperse the CBD powder throughout the mass of coffee grounds. Each of the containers was then used in a Keurig single-serving coffee machine to brew either a 160 mL coffee beverage or a 300 mL coffee beverage. Mixing the CBD powder throughout the coffee grounds allowed the CBD to melt as hot water flowed downward from the top of the container and through the mass of coffee grounds during the coffee brewing process; relative to simply disposing the CBD powder in the bottom of the container, this reduces the amount of CBD extracted into the coffee beverage but improves the extent to which the CBD is mixed and dispersed with other chemical components extracted with the coffee, thereby inhibiting the formation of a CBD film in the brewed coffee beverage.
For each brewed coffee beverage, the beverage was poured into three separate bottles; a small sample was taken from each bottle and diluted in 10× (by volume) ethanol. This mixture was then shaken and centrifuged to remove coffee components and dissolve the CBD. The supernatant was removed from the centrifuged samples and measured by high-performance liquid chromatography using an Agilent Zorbax Eclipse XDB-C8 column. The mobile phase was a 1 mL/min gradient of 70:30 (vol/vol) acetonitrile:water to 80:20 (vol/vol) acetonitrile:water over 8 minutes. A 20 μL injection was used and the column was kept at 25° C. Absorbance was measured at 210 nm with a 5 nm bandwidth.

Data set [2] in a line: CBD film formation on the surface of the brewed coffee beverage (visual). It counts as physicochemical. To be noted: Keurig-brewed coffee beverage, visual (FIG. 5A, 5B). An excerpt: This variability is expected due to the difference in particle size between the CBD powder and the ground coffee, which makes uniform dispersion of the CBD powder throughout the coffee grounds difficult.
Without wishing to be bound by any particular theory, the present inventors hypothesize that more concentrated droplets may be effective to increase the CBD extraction from F68 formulations.
This is because, in the use of Keurig single-serving coffee machines (and in conventional drip coffee makers), the water used is at or near its boiling point, which in any event is much higher than the melting point of CBD (66° C.), and the colloid droplets therefore cannot resist these high temperatures, causing coalescence of the CBD. In some embodiments, therefore, it may be desirable to brew the coffee beverage at a lower temperature, or to brew a conventional (non-CBD-containing) coffee beverage at typical near-boiling temperatures and then mix in a CBD colloid as described herein after the coffee beverage has cooled to below the melting point of CBD (but still at or above the temperature at which the consumer desires to consume the coffee, which on average is about 60° C.); it is to be expressly understood that such embodiments are within the scope of the present disclosure.

The conditions of data set [3]: oral; cited from earlier work.
Where [4] appears, read: CBD mass 50 mg, beverage volume 160 mL.
Setting [5] is: CBD mass 50 mg, beverage volume 300 mL.
Where [6] appears, read: CBD mass 75 mg, beverage volume 160 mL.
Setting [7] is: CBD mass 75 mg, beverage volume 300 mL.
Where [8] appears, read: CBD mass 100 mg, beverage volume 160 mL.
Where [9] appears, read: CBD mass 100 mg, beverage volume 300 mL.

Each structure is given as a SMILES string.

On to `C=C(C)[C@@H]1CCC(C)=C[C@H]1c1c(O)cc(CCCCC)cc1O` [CBD, cannabidiol], for which the CBD extraction in data set [1] (setting [4]) is recorded as 22.0 ± 9.6%; in data set [1] (setting [5]), 42.1 ± 10.0%; in data set [1] (setting [6]), 8.3 ± 6.2%; in data set [1] (setting [7]), 15.8 ± 5.2%; in data set [1] (setting [8]), 21.0 ± 14.8%; in data set [1] (setting [9]), 11.9 ± 3.5%. Further, the CBD in beverage in data set [1] (setting [4]) worked out at 8.9 ± 4.4 mg; in data set [1] (setting [5]) it was 20.3 ± 5.9 mg; in data set [1] (setting [6]), 11.3 ± 4.8 mg; in data set [1] (setting [7]), 11.9 ± 3.9 mg; in data set [1] (setting [8]), 21.0 ± 14.8 mg; in data set [1] (setting [9]) it was 11.9 ± 3.5 mg. Also, the “CBD film formation in the brewed coffee beverage” value in data set [2] was “large, thick films”. Besides, the “Maximum theoretical bioavailability of orally administered CBD” value in data set [3] is 19%.
